Measured values taken from patent publication US10526327B2, “Histone demethylase inhibitors” (CELGENE QUANTICEL RESEARCH, INC., priority 2013, dated 2020).

Biological target: T1, Jarid1A (Homo sapiens, UniProt P29375)
T1 construct: purchased BPS Bioscience 50110
T1 sequence (P29375 1-1090): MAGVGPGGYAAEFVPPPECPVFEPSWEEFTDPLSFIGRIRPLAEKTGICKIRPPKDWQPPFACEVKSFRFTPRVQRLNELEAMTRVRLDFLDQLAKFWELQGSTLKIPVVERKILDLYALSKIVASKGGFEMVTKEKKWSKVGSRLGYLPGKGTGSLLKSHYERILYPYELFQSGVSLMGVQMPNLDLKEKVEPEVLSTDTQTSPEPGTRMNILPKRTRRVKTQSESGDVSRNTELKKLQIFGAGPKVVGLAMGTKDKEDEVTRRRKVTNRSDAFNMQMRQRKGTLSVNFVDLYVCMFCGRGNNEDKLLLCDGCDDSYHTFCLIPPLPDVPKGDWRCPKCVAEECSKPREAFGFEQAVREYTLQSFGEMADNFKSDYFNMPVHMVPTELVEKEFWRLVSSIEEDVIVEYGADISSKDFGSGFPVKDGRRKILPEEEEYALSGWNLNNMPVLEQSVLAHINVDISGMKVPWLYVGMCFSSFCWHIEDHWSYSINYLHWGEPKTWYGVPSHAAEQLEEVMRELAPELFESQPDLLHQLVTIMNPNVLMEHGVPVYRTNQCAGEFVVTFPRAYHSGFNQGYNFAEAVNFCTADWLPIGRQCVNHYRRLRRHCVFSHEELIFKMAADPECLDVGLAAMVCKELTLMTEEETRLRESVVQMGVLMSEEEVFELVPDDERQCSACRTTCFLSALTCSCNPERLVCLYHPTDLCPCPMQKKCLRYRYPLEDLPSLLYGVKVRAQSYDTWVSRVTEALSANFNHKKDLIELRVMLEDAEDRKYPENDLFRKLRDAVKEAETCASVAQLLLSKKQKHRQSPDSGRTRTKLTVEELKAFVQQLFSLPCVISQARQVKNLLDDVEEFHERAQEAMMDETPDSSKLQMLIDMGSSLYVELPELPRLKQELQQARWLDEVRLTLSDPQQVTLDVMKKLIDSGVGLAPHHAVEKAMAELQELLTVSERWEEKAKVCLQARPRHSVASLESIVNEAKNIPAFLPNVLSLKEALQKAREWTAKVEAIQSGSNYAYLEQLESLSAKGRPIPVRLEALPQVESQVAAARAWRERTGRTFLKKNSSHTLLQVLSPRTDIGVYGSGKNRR
Test: Jarid1A in vitro enzyme inhibition assay (TR-FRET)
Assay type: biochemical
Text: This assay determines the ability of a test compound to inhibit Jarid1A, Jarid1B, and JMJD2C demethylase activity. Baculovirus expressed Jarid1A (GenBank Accession #NM_001042603, AA1-1090) was purchased from BPS Bioscience (Cat#50110). Baculovirus expressed Jarid1B (GenBank Accession #NM_006618, AA 2-751) was purchased from BPS Bioscience (Cat #50121) or custom made by MolecularThroughput. Baculovirus expressed JMJD2C (GenBank Accession #BC143571, AA 2-372) was purchased from BPS Bioscience (Cat#50105).
The enzymatic assay of Jarid1A activity is based upon Time Resolved-Fluorescence Resonance Energy Transfer (TR-FRET) detection. The ability of test compounds to inhibit the activity of Jarid1A was determined in 384-well plate format under the following reaction conditions: 1 nM Jarid1A, 300 nM H3K4me3-biotin labeled peptide (Anaspec cat #64357), 2 μM alpha-ketoglutaric acid in assay buffer of 50 mM HEPES, pH7.3, 0.005% Brij35, 0.5 mM TCEP, 0.2 mg/ml BSA, 50 μM sodium L-ascorbate, and 2 μM ammonium iron(II) sulfate. Reaction product was determined quantitatively by TR-FRET after the addition of detection reagent Phycolink Streptavidin-allophycocyanin (Prozyme) and Europium-anti-mono-or di-methylated histone H3 lysine 4 (H3K4me1-2) antibody (PerkinElmer) in the presence of 5 mM EDTA in LANCE detection buffer (PerkinElmer) at a final concentration of 25 nM and 1 nM, respectively.
The assay reaction was initiated by the following: 2 μl of the mixture of 900 nM H3K4me3-biotin labeled peptide and 6 μM alpha-ketoglutaric acid with 2 μl of 11-point serial diluted inhibitor in 3% DMSO was added to each well of plate, followed by the addition of 2 μl of 3 nM Jarid1A to initiate the reaction. The reaction mixture was incubated at room temperature for 30 minutes, and terminated by the addition of 6 μl of 5 mM EDTA in LANCE detection buffer containing 50 nM Phycolink Streptavidin-allophycocyanin and 2 nM Europium-anti-H3K4me1-2 antibody. Plates were read by EnVisionMultilabel Reader in TR-FRET mode (excitation at 320 nm, emission at 615 nm and 665 nm) after 1 hour incubation at room temperature. A ratio was calculated (665/615) for each well and fitted to determine inhibition constant (IC50).

SMILES | IC50 [nM]
Cc1nn(C)c2cc(Oc3nc(O)c4ccnc(-c5cn(C)cn5)c4n3)ccc12 [Example 85, 2-(1,3-dimethylindazol-6-yl)oxy-8-(1-methylimidazol-4-yl)pyrido[3,4-d]pyrimidin-4-ol] | ≤ 100
Oc1nc(Oc2cnn(Cc3ccc(F)cc3)c2)nc2cnccc12 [Example 86, 2-[1-(4-fluorobenzyl)pyrazol-4-yl]oxypyrido[3,4-d]pyrimidin-4-ol] | ≤ 100
Oc1nc(Oc2cnn(Cc3ccccc3F)c2)nc2cnccc12 [Example 87, 2-[1-(2-fluorobenzyl)pyrazol-4-yl]oxypyrido[3,4-d]pyrimidin-4-ol] | ≤ 100
CC(C)(C)OC(=O)N1CCC(n2cc(Oc3nc(O)c4ccncc4n3)cn2)CC1 [Example 88, tert-butyl 4-[4-(4-hydroxypyrido[3,4-d]pyrimidin-2-yl)oxypyrazol-1-yl]piperidine-1-carboxylate] | ≤ 100
Oc1nc(Oc2cnn(C3CCNCC3)c2)nc2cnccc12 [Example 89, 2-(1-piperidin-4-ylpyrazol-4-yl)oxypyrido[3,4-d]pyrimidin-4-ol] | ≤ 100
CC(=O)N1CCC(n2cc(Oc3nc(O)c4ccncc4n3)cn2)CC1 [Example 90, 1-[4-[4-(4-hydroxypyrido[3,4-d]pyrimidin-2-yl)oxypyrazol-1-yl]piperidin-1-yl]ethanone] | ≤ 100
C=CC(=O)N1CCC(n2cc(Oc3nc(O)c4ccncc4n3)cn2)CC1 [Example 91, 1-[4-[4-(4-hydroxypyrido[3,4-d]pyrimidin-2-yl)oxypyrazol-1-yl]piperidin-1-yl]prop-2-en-1-one] | ≤ 100
O=C(C1CC1)N1CCC(n2cc(Oc3nc(O)c4ccncc4n3)cn2)CC1 [Example 92, cyclopropyl-[4-[4-(4-hydroxypyrido[3,4-d]pyrimidin-2-yl)oxypyrazol-1-yl]piperidin-1-yl]methanone] | ≤ 100
O=C(c1ccc(F)cc1)N1CCC(n2cc(Oc3nc(O)c4ccncc4n3)cn2)CC1 [Example 93, (4-fluorophenyl)-[4-[4-(4-hydroxypyrido[3,4-d]pyrimidin-2-yl)oxypyrazol-1-yl]piperidin-1-yl]methanone] | ≤ 100
O=S(=O)(C1CC1)N1CCC(n2cc(Oc3nc(O)c4ccncc4n3)cn2)CC1 [Example 94, 2-[1-(1-cyclopropylsulfonylpiperidin-4-yl)pyrazol-4-yl]oxypyrido[3,4-d]pyrimidin-4-ol] | ≤ 100
O=S(=O)(c1ccccc1)N1CCC(n2cc(Oc3nc(O)c4ccncc4n3)cn2)CC1 [Example 95, 2-[1-[1-(benzenesulfonyl)piperidin-4-yl]pyrazol-4-yl]oxypyrido[3,4-d]pyrimidin-4-ol] | ≤ 100
Oc1nc(Oc2ccnc(N3CCNCC3)c2)nc2cnccc12 [Example 96, 2-(2-piperazin-1-ylpyridin-4-yl)oxypyrido[3,4-d]pyrimidin-4-ol] | ≤ 100
Oc1nc(Oc2ccnc(N3CCOCC3)c2)nc2cnccc12 [Example 97, 2-(2-morpholin-4-ylpyridin-4-yl)oxypyrido[3,4-d]pyrimidin-4-ol] | ≤ 100
Cn1cnc(-c2nccc3c(O)nc(OCC(C)(C)O)nc23)c1 [Example 98, 2-(2-hydroxy-2-methylpropoxy)-8-(1-methylimidazol-4-yl)pyrido[3,4-d]pyrimidin-4-ol] | 100 to 1000
CC(c1ccccc1)n1cc(Oc2nc(O)c3ccncc3n2)cn1 (stereo not shown) [Example 99] | ≤ 100
Cn1cnc(-c2nccc3c(O)nc(Oc4cnn(C5CCOCC5)c4)nc23)c1 [Example 100, 8-(1-methylimidazol-4-yl)-2-[1-(oxan-4-yl)pyrazol-4-yl]oxypyrido[3,4-d]pyrimidin-4-ol] | ≤ 100
Cn1cnc(-c2nccc3c(O)nc(OCc4ccccc4)nc23)c1 [Example 101, 8-(1-methylimidazol-4-yl)-2-phenylmethoxypyrido[3,4-d]pyrimidin-4-ol] | ≤ 100
Cn1cnc(-c2nccc3c(O)nc(OCC4CCOCC4)nc23)c1 [Example 102, 8-(1-methyl-1H-imidazol-4-yl)-2-(oxan-4-ylmethoxy)pyrido[3,4-d]pyrimidin-4-ol] | 100 to 1000
Cn1cnc(-c2nccc3c(O)nc(OCC4CCOC4)nc23)c1 (stereo not shown) [Example 103, 8-(1-methyl-1H-imidazol-4-yl)-2-(oxolan-3-ylmethoxy)pyrido[3,4-d]pyrimidin-4-ol] | 100 to 1000
Cn1cnc(-c2nccc3c(O)nc(OCc4cccc(F)c4)nc23)c1 [Example 104, 2-[(3-fluorophenyl)methoxy]-8-(1-methyl-1H-imidazol-4-yl)pyrido[3,4-d]pyrimidin-4-ol] | 100 to 1000
Cn1cnc(-c2nccc3c(O)nc(OCc4ccccc4Cl)nc23)c1 [Example 105, 2-[(2-chlorophenyl)methoxy]-8-(1-methyl-1H-imidazol-4-yl)pyrido[3,4-d]pyrimidin-4-ol] | 1000 to 10000
Cn1cnc(-c2nccc3c(O)nc(OCc4cccc(Cl)c4Cl)nc23)c1 [Example 106, 2-[(2,3-dichlorophenyl)methoxy]-8-(1-methyl-1H-imidazol-4-yl)pyrido[3,4-d]pyrimidin-4-ol] | 1000 to 10000
